US20090142364A1, “Method for finding novel peptide immunostimulatory adjuvants, compositions and methods of use” (priority 2007, published 2009)
Where a SMILES comes first, the peptide text is derived from it. [ ]: non-standard residue; d: D form.

Columns and labels:
mAb E6/1.2 = conditions: cited from earlier work
[1] = system: antibody response to ovalbumin; assay: Adjuvant activity: antibody response to ovalbumin in mice, titer by solid-phase ELISA; assay type: in vivo, Balb/c mice; conditions: for Adjuvant index / Anti-ovalbumin antibody titer: i.p.
Procedure: To study the adjuvant activity of RN-peptide, Balb/c mice were immunized with ovalbumin in saline in the presence of the RN-peptide, its analogs or GMDP, or without any adjuvant (control). The adjuvant was introduced on first immunization, whereas second immunization was carried out with half dose of OVA without adjuvant.
Adjuvant activity. Groups of 5 Balb/c mice were administered i.p. with 2.5-10 μg ovalbumin (Sigma, USA) per mouse in 200 μl PBS. RN-peptide (0.1-100 μg) or GMDP (1-100 μg) was introduced simultaneously with ovalbumin on first immunization. The second immunization was carried out 28 days later with half dose of ovalbumin (1.25-5.0 μg/200 μl) without adjuvant. Control mice received ovalbumin twice without adjuvant. Three days after the second immunization mice were bled from the tail vein. […] Control mice received polysaccharide without any adjuvant. Five and ten days after immunization mice were bled.
The antibody titer was evaluated by solid-phase ELISA as described by Douillard and Hoffman (1983) Enzyme-linked immunosorbent assay for screening monoclonal antibody production using enzyme-labeled second antibody. The antigen (ovalbumin or polysaccharide), 5 μg/ml in bicarbonate buffer, pH 8.6 (100 μl), was introduced into wells of 96-well microtiter plate. Incubation was carried out overnight at 4° C. The plate was washed 5 times with PBS and 5 times with PBS/0.1% Tween-20 (PBS-T). Remaining binding sites were blocked with 1% gelatin in PBS (2 h, room temperature). After washing 100 μl of mouse serum (1:100 dilution) was added, and serial three-fold dilutions were made. Bound antibodies were visualized by incubation with Horse-Radish-Peroxidase (HRP)-conjugated rabbit anti-mouse antibodies and OPD as the chromogenic substrate.

[2] = system: Balb/c mice peritoneal mononuclear cells (PMC); assay: Ia-antigen-inducing effect, flow cytometry, peritoneal mononuclear cells; assay type: cell-based, mouse
Procedure: (§1) We studied the Ia-antigen-inducing activity of RN-peptide by stimulation in vitro of murine peritoneal macrophages. Flow cytometry was used to assess Ia-antigen expression. […] The pyrogenicity of the peptide was studied in Wistar rats. […] The dynamics of alteration of rectal temperature were monitored during 2.5 h.
Balb/c mice peritoneal mononuclear cells (PMC) were isolated by Histopaque density gradient centrifugation. PMC or WEHI-3 cells were incubated with RN-peptide (0.1-10 μg/ml) or GMDP (positive control) or saline (negative control) in RPMI 1640 medium, supplemented with 5% fetal calf serum upon rotary mixing for 18 h at 37° C. Cells were stained on ice bath with MKD6 anti-Ia^d mAb (supernatant from the in vitro culture, 1:10 dilution) and FITC-labeled anti-mouse immunoglobulin (Sigma, USA, 1:300 dilution), and then with phycoerythrin-labeled F4/80 mAb (Caltag, USA, 0.2 μg/100 μl). Ia antigen expression was assessed by flow cytometry using EPICS “Elite” (Coulter, USA).

[3] = rat, in vivo, ip
Procedure: as §1
The pyrogenic effect SPF female Wistar rats were injected i.p. with a peptide (1.01 mg/kg; 5.74×10^−7 mole/kg) in PBS or with equal dose of GMDP (0.4 mg/kg; 5.74×10^−7 mole/kg). Rectal temperature was recorded every 5 minutes for 160 minutes using PowerLabe/4sp system with an electronic thermometer (MLT1403 Rectal Probe for Rats, AD Instruments USA). All data were quantified (mean±SEM) and compared by the variance analysis.

E. coli strain TG-1 = assay: Survival of Balb/c mice infected with E. coli strain TG-1; assay type: in vivo, mouse; conditions: 2 ng i.p., 6 mice at 0 h
Procedure: Groups of Balb/c mice (20-22 g) were administered i.p. with RN-peptide, or GMDP, or saline (control), and then infected i.p. with E. coli strain TG-1 cells. Two doses of E. coli cells were used—1×10^8 (LD50) and 2×10^8 (LD100). Mice were infected one day (experiment A) or seven days (experiment B) after injection of the immunomodulator. Survival of mice was assessed during three days. Results showing that RN-peptide protects mice from lethal doses of E. coli infections (Table 4).

[4] = adjuvant 1 μg, ovalbumin 10 μg then 5 μg
[5] = adjuvant 10 μg, ovalbumin 10 μg then 5 μg
[6] = adjuvant 100 μg, ovalbumin 10 μg then 5 μg
[7] = adjuvant 10 μg, ovalbumin 2.5 μg then 1.25 μg
[8] = Experiment A (infected one day after injection), 1 × 10^8 E. coli cells (LD50)
[9] = Experiment A (infected one day after injection), 2 × 10^8 E. coli cells (LD100)
[10] = Experiment B (infected seven days after injection), 1 × 10^8 E. coli cells (LD50)
[11] = Experiment B (infected seven days after injection), 2 × 10^8 E. coli cells (LD100)

For C[C@H](N)C(=O)N[C@H](CCC(=O)O)C(N)=O [Ala-D-iGln] (H-Ala-[dE]-NH2), the “inhibition of binding of GMDP to E6/1.2 mAb” value (mAb E6/1.2) is given as “not”.

Molecule “VN-peptide: 14-mer, RN-peptide truncated from N-terminus (SEQ ID NO: 11) (VPPRYHAKISPMVN)” has an Adjuvant index [1, 4] of 0.9 ± 0.03, an Anti-ovalbumin antibody titer [1, 4] of 5400 ± 200 and an Adjuvant index [1, 5] of 1.4 ± 0.04. For the same molecule, the Anti-ovalbumin antibody titer [1, 5] was 8400 ± 230, the Adjuvant index [1, 6] was 0.7 ± 0.03 and the Anti-ovalbumin antibody titer [1, 6] was 4200 ± 150.

Molecule CC(=O)N[C@H]1[C@H](O[C@H]2[C@H](O[C@H](C)C(=O)N[C@@H](C)C(=O)N[C@H](CCC(=O)O)C(N)=O)[C@@H](NC(C)=O)C(O)O[C@@H]2CO)O[C@H](CO)[C@@H](O)[C@@H]1O (stereo partly drawn) [GMDP, N-acetylglucosaminyl-β1-4-N-acetylmuramyl-alanyl-D-isoglutamine, reference compound] has an Adjuvant index [1, 4] of 0.7 ± 0.03, an Anti-ovalbumin antibody titer [1, 4] of 4000 ± 150 and an Adjuvant index [1, 7] of 2.37 ± 0.06. The Anti-ovalbumin antibody titer [1, 7] was 5800 ± 150, the Adjuvant index [1, 5] was 1.3 ± 0.03 and the Anti-ovalbumin antibody titer [1, 5] was 7900 ± 200. The Adjuvant index [1, 6] was 10.8 ± 0.08, the Anti-ovalbumin antibody titer [1, 6] was 64800 ± 500 and the “concentration of peak (optimal) Ia-antigen response” value ([2]; 18 h incubation) was 10 µg/mL. For the same molecule, the “increase in Ia-positive cell number” value ([2]; at optimal dose, overnight treatment) was 10%, the “optimal dose for Ia-positive cell increase” value ([2]; overnight treatment) was 10 µg and the “increase in body temperature” value [3] was 2.0-4.0%. For the same molecule, the Number of survivors (E. coli strain TG-1; [8]) was 2, the “surviving mice, 24 hours after infection” value (E. coli strain TG-1; [8]) was 2 and the “surviving mice, 28 hours after infection” value (E. coli strain TG-1; [8]) was 2. The “surviving mice, 72 hours after infection” value (E. coli strain TG-1; [8]) was 2, the Number of survivors (E. coli strain TG-1; [9]) was 1 and the “surviving mice, 24 hours after infection” value (E. coli strain TG-1; [9]) was 2. For the same molecule, the “surviving mice, 28 hours after infection” value (E. coli strain TG-1; [9]) was 2, the “surviving mice, 72 hours after infection” value (E. coli strain TG-1; [9]) was 1 and the Number of survivors (E. coli strain TG-1; [10]) was 2. For the same molecule, the “surviving mice, 24 hours after infection” value (E. coli strain TG-1; [10]) was 5, the “surviving mice, 28 hours after infection” value (E. coli strain TG-1; [10]) was 2 and the “surviving mice, 72 hours after infection” value (E. coli strain TG-1; [10]) was 2. The Number of survivors (E. coli strain TG-1; [11]) was 0, the “surviving mice, 24 hours after infection” value (E. coli strain TG-1; [11]) was 3 and the “surviving mice, 28 hours after infection” value (E. coli strain TG-1; [11]) was 2. The “surviving mice, 72 hours after infection” value (E. coli strain TG-1; [11]) was 0.

In the case of “RV-peptide: 14-mer, RN-peptide truncated from C-terminus (SEQ ID NO: 8) (RVPPRYHAKISPMV)”, the Adjuvant index [1, 4] is reported as 6.3 ± 0.06, the Anti-ovalbumin antibody titer [1, 4] is reported as 37800 ± 350 and the Adjuvant index [1, 5] is reported as 1.4 ± 0.04. It also gave an Anti-ovalbumin antibody titer [1, 5] of 8400 ± 240, an Adjuvant index [1, 6] of 0.8 ± 0.03 and an Anti-ovalbumin antibody titer [1, 6] of 4800 ± 180.

For CC(=O)N[C@H]1[C@H](O[C@H]2[C@H](O[C@H](C)C(=O)O)[C@@H](NC(C)=O)C(O)O[C@@H]2CO)O[C@H](CO)[C@@H](O)[C@@H]1O (stereo partly drawn) [GlcNAc-β(1-4)-MurNAc], the “inhibition of binding of GMDP to E6/1.2 mAb” value (mAb E6/1.2) is listed as “could be inhibited by high concentration”.

Molecule “R-H-peptide: 7-mer, RN-peptide truncated from C-terminus (SEQ ID NO: 10); truncated heptapeptide (RVPPRYH)” has an Adjuvant index [1, 4] of 0.7 ± 0.03, an Anti-ovalbumin antibody titer [1, 4] of 4000 and an Adjuvant index [1, 5] of 2.3 ± 0.05. The Anti-ovalbumin antibody titer [1, 5] was 13900, the Adjuvant index [1, 6] was 8.6 ± 0.09 and the Anti-ovalbumin antibody titer [1, 6] was 51900. The “dose required for maximal effect relative to RN-peptide” value ([1]; mouse, in vivo) was 100 times.

With “R-I-peptide: 10-mer, RN-peptide truncated from C-terminus (SEQ ID NO: 9) (RVPPRYHAKI)” the Adjuvant index [1, 4] was 6.3 ± 0.06, the Anti-ovalbumin antibody titer [1, 4] was 24000 and the Adjuvant index [1, 5] was 3.2 ± 0.09. The Anti-ovalbumin antibody titer [1, 5] was 19200, the Adjuvant index [1, 6] was 4.2 ± 0.05 and the Anti-ovalbumin antibody titer [1, 6] was 25200. The “adjuvant activity (in words)” value ([1]; ovalbumin in mice) was “adjuvant active”.

For CC(=O)NC1C(OC2C(CO)OC(O)C(NC(C)=O)C2OC(C)C(=O)NC(C)C(=O)NC(CCC(=O)O)C(N)=O)OC(CO)C(O)C1O (stereo not drawn) [LL-GMDP], the “binding of mAb E6/1.2” value (mAb E6/1.2; compared with GMDP) is listed as “bind equally well”.
